Eight substances from publication PMC8302598, “Rapid discovery of self-assembling peptides with one-bead one-compound peptide library” (Nature Communications, 2021) can be followed below.

Holding throughout (type): physicochemical
Data set [1] is described as follows: Self-assembly of resynthesized soluble pentapeptides. To be noted: self-assembly under aqueous environment. The source says: (§1) Once the screening method has been validated with our model KLVFF peptide, a totally random pentapeptide library with 19[5] permutations (cysteine was omitted from the library) was constructed using our previously published methods (Supplementary Fig. 3)[23]. Again, TentaGel S resin (loading of 0.31 mmol/g) was used as the solid support. The pentapeptides in the library were N-terminally capped with NBD. […] The positive bead with an intense fluorescent signal (pointed with a solid arrow) was noted. The rest of the beads were considered negative or weak positive beads. From a total of approximately 100 000 beads screened, we selected a total of eight strongest fluorescent positive beads and four dark beads as negative beads. The peptides were then resynthesized in soluble form and purified by high-performance liquid chromatography (HPLC) for testing (Supplementary Figs. 4–12). The amino acid sequences of the eight self-assembling pentapeptides are FTISD, ITSVV, YFTEF, ISDNL, LDFPI, FAGFT, FGFDP, and FFVDF. Not unexpectedly, of the 40 amino acids in these eight pentapeptides, 50% are hydrophobic residues, predominated by Phe (11 Phe, 4 Ile, 3 Val, and 2 Leu). For the remaining 20 amino acids, six are acidic residues (5 Asp and 1 Glu) and seven are neutral and hydrophilic (4 Thr and 3 Ser). The rest are 2 Pro, 2 Gly, 1 Tyr, 1 Asn, and 1 Ala. All eight peptides have at least two hydrophobic residues. Six out of the eight peptides have one negatively charged residue (Asp or Glu). The remaining two peptides are neutral. […] For the Pro containing pentapeptides, LDFPI and FGFDP, the Pro residue, which promotes peptide turns, resides at the fourth and fifth positions, but not in the middle. Not unexpectedly, all the four randomly selected negative non-assembling peptides (RITTR, PLVKA, PFTTR, and QIMRW) have very different sequences, and contain at least one positive charged amino acid.
To estimate the propensity of the identified peptides to self-assemble, the critical micelle concentrations (CMC) of the eight positive peptides and four negative peptides were determined, and the results are shown in Table 1 and Supplementary Figs. 13, 14. The CMC of all the eight positive peptides were detectable and found to range between 8.4 and 14.8 μM, indicating the propensity for these peptides to self-assemble under aqueous environment. […] Hydrophobicity of peptides can be predicted by the value of GRAVY[28] with more negative value for more hydrophilic peptides. Of the four negative assembling peptides, two have a negative GRAVY value. […] Experimental testing, such as the screening strategy described in this work, is needed. This is because multiple factors, including hydrophobicity, hydrogen-bonding, electrostatic interactions, and positions of each residue within the peptides, all contribute to the assembling and final morphology of the self-assembled nano-structure. […]

Data set [2] in a line: Fluorescent-activation screening assay on OBOC beads (NBD). The conditions noted are these: peptide N-terminally capped with NBD on TentaGel S beads, in water, fluorescence microscope.
From the text: It is well known that Aβ16–20 peptide sequence KLVFF can self-assemble into nanofibers in water. We, therefore, chose it as a model peptide to test our screening strategy and used KAAGG as the non-assembling negative control. These control peptides, N-terminally capped with NBD were synthesized with standard Fmoc-chemistry, and TentaGel S resin beads as solid support but without any cleavable linker. After side-chain deprotection, the beads were thoroughly washed with DMF, which was replaced stepwise with water or methanol and then examined under a fluorescent microscope. […] This is expected as the hydrophobicity-sensitive fluorescence dye NBD would fluoresce brightly under hydrophobic condition, in this case, methanol. In water, we expect fluorescent signal emitted from non-sequestered NBD to diminish, unless it is buried inside a hydrophobic environment such as within peptide aggregates or β-sheets formed by KLVFF peptides.
as §1
The OBOC pentapeptide libraries (19[5]) were built using Fmoc strategy SPPS (solid-phase peptide synthesis) (Supplementary Fig. 3). TentaGel S Resin (named N-beads with loading 0.31 mmol/g) was used as the solid phase support. The pentapeptide sequence of X1 X2 X3 X4 X5 was constructed in the library, in which X1−X5 represents either Ala, Asp, Glu, Phe, Gly, His, Ile, Lys, Leu, Met, Asn, Pro, Gln, Arg, Ser, Thr, Val, Trp, and Tyr residues. During the synthesis of OBOC library, solid support beads were mixed and split equally in each cycle, then different amino acids were added, separately, the process was repeated four times. The synthesis of peptides was used anhydrous DMF as solvent. The Fmoc group was removed by 20% (v/v) piperidine in DMF and the deprotection time was 10 min twice. During the coupling step, the HBTU (4 mM) and Fmoc-amino acid (4 mM) were dissolved in DMF containing NMM (0.4 mM). The coupling time was 50 min. Qualitative Fmoc deprotection and coupling were confirmed by ninhydrin test. All the above experiments were carried out in the solid phase peptide synthesis vessels with sieves in it. […]

Data set [3] can be described thus: Critical micelle concentration (CMC). To be noted: soluble HPLC-purified peptide, aqueous. The method, then:
To estimate the propensity of the identified peptides to self-assemble, the critical micelle concentrations (CMC) of the eight positive peptides and four negative peptides were determined, and the results are shown in Table 1 and Supplementary Figs. 13, 14. The CMC of all the eight positive peptides were detectable and found to range between 8.4 and 14.8 μM, indicating the propensity for these peptides to self-assemble under aqueous environment. […] Hydrophobicity of peptides can be predicted by the value of GRAVY[28] with more negative value for more hydrophilic peptides. Of the four negative assembling peptides, two have a negative GRAVY value. […] Experimental testing, such as the screening strategy described in this work, is needed. This is because multiple factors, including hydrophobicity, hydrogen-bonding, electrostatic interactions, and positions of each residue within the peptides, all contribute to the assembling and final morphology of the self-assembled nano-structure.

For the substance “ISDNL [self-assembling pentapeptide identified from OBOC library]”, the Assembly result in data set [1] is given as “Yes”. Besides, the “Fluorescence (beads)” value in data set [2] is given as “On”. Also, in data set [3], the CMC was 9.4 µM.

Take “ITSVV [self-assembling pentapeptide identified from OBOC library]”: the Assembly entry in data set [1] is on record as “Yes”. The “Fluorescence (beads)” value in data set [2] is on record as “On”. The substance also showed a CMC in data set [3] of 14.8 µM.

On to “YFTEF [self-assembling pentapeptide identified from OBOC library]”, for which, in data set [1], the Assembly entry is on record as “Yes”. The “Fluorescence (beads)” value in data set [2] is on record as “On”. In data set [3], this substance displayed a CMC of 11.4 µM.

Take “FAGFT [self-assembling pentapeptide identified from OBOC library]”: in data set [1], the Assembly result was “Yes”. Also, the “Fluorescence (beads)” value in data set [2] is listed as “On”. The substance also gave a CMC in data set [3] of 13.9 µM.

For “FGFDP [self-assembling pentapeptide identified from OBOC library]”, the Assembly entry in data set [1] is “Yes”. For the same substance, the “Fluorescence (beads)” value in data set [2] was “On”. In data set [3], this substance returned a CMC of 14.8 µM.

Turning to “FTISD [self-assembling pentapeptide identified from OBOC library]”, the Assembly result in data set [1] was “Yes”. For the same substance, in data set [2], the “Fluorescence (beads)” value is “On”. Besides, in data set [3], the CMC was 10.04 µM.

Consider “FFVDF [self-assembling pentapeptide identified from OBOC library, forms nanofibers]”, for which, in data set [1], the Assembly result is on record as “Yes”. Moreover, in data set [2], the “Fluorescence (beads)” value is reported as “On”. Also, in data set [3], the CMC was 14.4 µM.

In the case of “LDFPI [self-assembling pentapeptide identified from OBOC library]”, the Assembly result in data set [1] was “Yes”. Further, the “Fluorescence (beads)” value in data set [2] is “On”. Also, the CMC in data set [3] amounted to 8.4 µM.
